Results as given in patent publication US20240270821A1, “GIP/GLP1/GCG TRI-RECEPTOR AGONISTS AND USES THEREOF” (priority 2023, published 2024).
Read-outs that look alike come from different tables or passages of the source. Starred links: 1 amine or outer side, 2 acyl side, 3 side chain; linkers in the order of their positions; H or OH if unused. Non-standard residues stand in square brackets, D forms with d. Residues, ends and D or L forms follow the SMILES beside them. Groups on a side chain read outwards from the residue. *: point of attachment. C18 diacid = O=C(O)CCCCCCCCCCCCCCCCC(=O)*; αMePhe(2-F) = C[C@](N)(Cc1ccccc1F)C(=O)O; γGlu = O=C(O)[C@H](CCC(=O)[*:2])N[*:1]; αMe4Pal = C[C@](N)(Cc1ccncc1)C(=O)O; αMeY = C[C@](N)(Cc1ccc(O)cc1)C(=O)O; 4Pal = N[C@@H](Cc1ccncc1)C(=O)O; αMeL = CC(C)C[C@](C)(N)C(=O)O; αMeS = C[C@](N)(CO)C(=O)O; Orn = NCCC[C@H](N)C(=O)O; AEEA = NCCOCCOCC(=O)O; Aib = CC(C)(N)C(=O)O

Columns and labels:
[1] = system: Intestinal organoid from Göttingen minipig jejunum tissue, 2D monolayer; test: Cell based in vitro permeability (Papp) assay; type: in vitro ADME
Method in brief: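 Papp calculated from LC/MS peptide levels in apical and basal compartments. Basal sampling at 20 min with C10 present, across monolayers grown from dissociated minipig jejunal organoids in transwells.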

[2] = Pepsin stability assay in simulated gastric fluid; type: in vitro ADME; details: pH 1.2, % Intact (SD)
Description: A pepsin stability assay is utilized to determine the relative stability of Example polypeptides in a simulated gastric proteolytic environment. […] The relative amount of intact peptide is quantified by mass spectrometry (MS). […] The examples were dissolved in 50 mM Tris buffer pH 8.0 at a concentration of 10 mg/mL as a stock solution. Pepsin A was reconstituted in SGF at 10 mg/mL. […] The example peptide and pepsin solutions were then incubated at 37° C. in a shaking incubator set at 100 rpm. Samples (25 μL) were withdrawn at different time intervals and quenched with 100 mM ammonium bicarbonate pH 9 (50 μL) to stop proteolytic activity. All samples were centrifuged, and the supernatants were analyzed by LC/MS to determine the remaining intact peptide.

human GcgR = human GcgR (Homo sapiens, UniProt P47871); test: Functional cAMP activity in the presence of 1% HSA; type: cell-based; details: read-out: cAMP Rel EC50, hGcgR
Chain of human GcgR (P47871 26-477): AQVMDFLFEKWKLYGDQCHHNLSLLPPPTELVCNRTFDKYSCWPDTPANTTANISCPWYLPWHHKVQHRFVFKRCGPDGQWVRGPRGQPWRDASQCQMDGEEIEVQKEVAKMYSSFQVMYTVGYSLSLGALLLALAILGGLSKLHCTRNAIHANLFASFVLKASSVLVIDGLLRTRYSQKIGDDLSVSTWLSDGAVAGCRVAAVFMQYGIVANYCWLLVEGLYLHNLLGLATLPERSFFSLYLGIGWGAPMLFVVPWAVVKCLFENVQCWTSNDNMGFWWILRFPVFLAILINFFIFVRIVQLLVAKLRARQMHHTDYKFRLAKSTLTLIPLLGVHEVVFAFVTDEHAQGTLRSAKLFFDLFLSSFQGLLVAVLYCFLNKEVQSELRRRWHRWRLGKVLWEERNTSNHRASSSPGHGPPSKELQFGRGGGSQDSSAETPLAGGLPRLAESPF

hGLP-1R [3] = target: T1, hGLP-1R (Homo sapiens, UniProt P43220); test: Functional cAMP activity in the presence of 1% HSA; type: cell-based; details: read-out: cAMP Rel EC50, hGLP-1R
T1 sequence (P43220 24-463): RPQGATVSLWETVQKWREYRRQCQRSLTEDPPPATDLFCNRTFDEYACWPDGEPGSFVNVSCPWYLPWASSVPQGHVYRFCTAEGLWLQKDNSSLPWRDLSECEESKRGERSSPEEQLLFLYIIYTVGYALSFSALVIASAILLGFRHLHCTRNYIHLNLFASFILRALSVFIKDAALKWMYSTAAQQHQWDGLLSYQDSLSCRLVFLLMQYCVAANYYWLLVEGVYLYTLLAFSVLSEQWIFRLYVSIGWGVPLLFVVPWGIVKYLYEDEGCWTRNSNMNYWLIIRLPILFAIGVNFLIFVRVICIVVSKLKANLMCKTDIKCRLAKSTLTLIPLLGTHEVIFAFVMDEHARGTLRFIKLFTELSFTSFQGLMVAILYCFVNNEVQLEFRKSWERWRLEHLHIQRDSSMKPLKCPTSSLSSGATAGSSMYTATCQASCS

hGLP-1R [4] = target: T1, hGLP-1R; test: Functional cAMP activation in the presence of 0.1% casein (no HSA); type: cell-based; details: read-out: Relative cAMP EC50, hGLP-1R;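 on Relative cAMP EC50, hGIPR: intracellular cAMP rise after 30 min at 37 °C read by HTRF against a standard curve, scaled between buffer alone (0%) and top control ligand concentration (100%), four-parameter fit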;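 on Relative cAMP EC50, hGLP-1R: intracellular cAMP rise after 30 min at 37 °C read by HTRF, normalized between buffer only (0%) and maximal control ligand (100%), four-parameter variable-slope fit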;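 on Relative cAMP EC50, hGcgR: intracellular cAMP rise after 30 min at 37 °C, read by HTRF against a cAMP standard curve, scaled from buffer only (0%) to maximal control ligand response (100%)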
Description: After a 30-minute incubation at 37° C., the resulting increase in intracellular cAMP is quantitatively determined using the CisBio CAMP Dynamic 2 HTRF Assay Kit (62AM4PEJ). Briefly, cAMP levels within the cell are detected by adding the cAMP-d2 conjugate in cell lysis buffer followed by the antibody anti-cAMP-Eu^3+-Cryptate, also in cell lysis buffer.
Intracellular cAMP levels are determined by extrapolation using a standard curve. Dose response curves of compounds are plotted as the percentage of stimulation normalized to minimum (buffer only) and maximum (maximum concentration of each control ligand) values and analyzed using a four parameter non-linear regression fit with a variable slope (Genedata Screener 13). EC50 is the concentration of compound causing half-maximal simulation in a dose response curve. Each relative EC50 value for the Geometric mean calculation is determined from a curve fitting.

hGcgR = hGcgR (Homo sapiens, UniProt P47871); test: as above; type: cell-based; details: read-out: Relative cAMP EC50, hGcgR;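 further: intracellular cAMP rise after 30 min at 37 °C, read by HTRF against a cAMP standard curve, scaled from buffer only (0%) to maximal control ligand response (100%)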
Chain of hGcgR (P47871 26-477): as the sequence (P47871 26-477) above

[5] = Body weight in diet-induced obese C57BL/6 mice; type: in vivo; details: 10 nmol/kg SC QD, 7 days, percent of starting weight, DIO mice, mean ± SEM n=5
Method in brief: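 Daily weighing gave body weight as percent of starting value (mean±SEM, n=5) over 9-16 days of SC dosing, once daily or every 3 days, shortly before lights-off. Animals were weight-randomized male C57BL/6 DIO mice, 41-50 g, fed ad libitum on a calorie-rich diet.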

hGIPR [6] = target: T2, hGIPR (Homo sapiens, UniProt P48546); test: Functional cAMP activity in the presence of 1% HSA; type: cell-based; details: read-out: cAMP Rel EC50, hGIPR
T2 sequence (P48546 22-466): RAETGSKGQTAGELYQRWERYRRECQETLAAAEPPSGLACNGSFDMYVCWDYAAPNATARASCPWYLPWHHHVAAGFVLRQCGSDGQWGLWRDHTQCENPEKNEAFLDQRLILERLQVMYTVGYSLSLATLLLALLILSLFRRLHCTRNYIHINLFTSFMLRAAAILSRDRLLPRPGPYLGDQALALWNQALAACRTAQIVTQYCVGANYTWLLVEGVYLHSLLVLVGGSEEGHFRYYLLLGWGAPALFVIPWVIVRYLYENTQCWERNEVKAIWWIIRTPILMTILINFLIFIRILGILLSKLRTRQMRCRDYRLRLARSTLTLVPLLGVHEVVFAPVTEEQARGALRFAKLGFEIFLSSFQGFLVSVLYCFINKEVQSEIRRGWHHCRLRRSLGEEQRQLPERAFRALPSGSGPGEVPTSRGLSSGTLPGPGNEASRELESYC

hGIPR [7] = target: T2, hGIPR; test: Functional cAMP activation in the presence of 0.1% casein (no HSA); type: cell-based; details: read-out: Relative cAMP EC50, hGIPR;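 on Relative cAMP EC50, hGIPR: intracellular cAMP rise after 30 min at 37 °C read by HTRF against a standard curve, scaled between buffer alone (0%) and top control ligand concentration (100%), four-parameter fit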;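 on Relative cAMP EC50, hGLP-1R: intracellular cAMP rise after 30 min at 37 °C read by HTRF, normalized between buffer only (0%) and maximal control ligand (100%), four-parameter variable-slope fit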;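 on Relative cAMP EC50, hGcgR: intracellular cAMP rise after 30 min at 37 °C, read by HTRF against a cAMP standard curve, scaled from buffer only (0%) to maximal control ligand response (100%)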
in vivo [8] = test: in vivo; set-up: species or system cynomolgus monkeys; details: both sexes, cynomolgus monkey, iv, 10 nmol/kg
Description: (§1) A study is designed to evaluate the oral bioavailability of Example polypeptides in cynomolgus monkeys. […] Standards and controls are prepared in cynomolgus monkey plasma, and any dilutions required to bring samples into the quantitative range are also performed in control cynomolgus monkey plasma. To control assay variability, an internal standard (IS) is added to all the standards and samples. The Examples and IS are extracted from 100% monkey plasma (50 μL) by protein precipitation using isopropyl alcohol and methanol (50:50 v/v). The samples are then centrifuged (3000 rpm for 10 minutes) and the supernatant is transferred to a Siricco Protein Precipitation Plate. The samples are loaded on a Sep-Pak tC18 SPE microelution plate that is conditioned with 2% formic acid in acetonitrile and water. The compounds are then washed with 2% formic acid in water and eluted using 2% formic acid in acetonitrile into a plate containing 5× Invitrosol and 1% formic acid in water prior to injecting an aliquot (10 μL) on to Xselect CSH C18, 3.5 μm, 2.1×20 mm for LC/MS analysis.
Blood samples are collected over 504 hours. Plasma is harvested from blood samples by centrifugation and stored frozen (−70° C.) until analysis. Plasma concentrations of the molecules are detected using the bioanalytical method described above.

in vivo [9] = test: in vivo; set-up: species or system cynomolgus monkeys; details: both sexes, cynomolgus monkey, po
Description: as §1
[…] Blood samples are collected up to 504 hours post-dose. Plasma is harvested from blood samples by centrifugation and stored frozen (−70° C.) until analysis. Plasma concentrations of the molecules are detected using the bioanalytical method described above.

[10] = in the presence of 0.1% casein (no HSA), geometric mean

Compound | remaining at 0.25 h, 0.4 mg/mL [2] [%] | remaining at 0.5 h, 0.4 mg/mL [2] [%] | remaining at 1 h, 0.4 mg/mL [2] [%] | EC50 (human GcgR) [nM] | EC50 (hGLP-1R [3]) [nM] | EC50 (hGLP-1R [4]) [nM] | EC50 (hGcgR) [nM] | EC50 (hGIPR [6]) [nM] | EC50 (hGIPR [7]) [pM] | other results
CC[C@H](C)[C@H](NC(=O)[C@H](CC(C)C)NC(=O)[C@](C)(Cc1ccc(O)cc1)NC(=O)[C@@H](CCC(=O)O)NC(=O)[C@@H](NC(=O)[C@H](Cc1ccccc1)NC(=O)[C@H](CCC(=O)O)NC(=O)[C@](C)(Cc1ccncc1)NC(=O)[C@H](CCC(N)=O)NC(=O)[C@H](C)NC(=O)[C@H](CCCCNC(=O)CC[C@H](NC(=O)CC[C@H](NC(=O)CCCCCCCCCCCCCCCCC(=O)O)C(=O)O)C(=O)O)NC(=O)[C@H](CCCN)NC(=O)[C@H](CC(=O)O)NC(=O)[C@H](CC(C)C)NC(=O)[C@](C)(CC(C)C)NC(=O)[C@@H](NC(=O)[C@](C)(CO)NC(=O)[C@H](Cc1ccncc1)NC(=O)[C@H](CC(=O)O)NC(=O)[C@H](CO)NC(=O)[C@@H](NC(=O)[C@](C)(Cc1ccccc1F)NC(=O)[C@@H](NC(=O)CNC(=O)[C@H](CCC(N)=O)NC(=O)C(C)(C)NC(=O)[C@@H](N)Cc1ccc(O)cc1)[C@@H](C)O)[C@@H](C)O)[C@@H](C)CC)[C@@H](C)CC)C(=O)N[C@@H](CCC(=O)O)C(=O)NCC(=O)NCC(=O)N1CCC[C@H]1C(=O)N[C@@H](CO)C(=O)N[C@@H](CO)C(=O)NCC(=O)N[C@@H](C)C(=O)N1CCC[C@H]1C(=O)N1CCC[C@H]1C(=O)N1CCC[C@H]1C(=O)N[C@@H](CO)C(=O)NCC(=O)N[C@@H](CO)C(N)=O [Example 700] | 89.9 | 106 | 98.9 | 132 | 20 | 0.245 | 1.31 | 0.397 | 7.58 | Relative Papp (Compared to internal standard) [1]: 0.29; Body weight (%) [5]: 75.9 ± 3.77 %
H-Y[Aib]QGT[αMePhe(2-F)]TSD[4Pal][αMeS]I[αMeL]LD[Orn]K([γGlu-γGlu-C18 diacid])AQ[αMe4Pal]EFI[dE][αMeY]LVEGGPSSGAPPPSGS-NH2 [Example 696] | 102 | 107 |  | 173 | 19.1 | 0.233 | 1.75 | 0.53 | 6.88 | Relative Papp (Compared to internal standard) [1]: 0.77
CC[C@H](C)[C@H](NC(=O)[C@H](CC(C)C)NC(=O)[C@](C)(Cc1ccc(O)cc1)NC(=O)[C@@H](CCC(=O)O)NC(=O)[C@@H](NC(=O)[C@H](Cc1ccccc1)NC(=O)[C@@H](NC(=O)C(C)(C)NC(=O)[C@H](CCC(N)=O)NC(=O)[C@H](C)NC(=O)[C@H](CCCCNC(=O)COCCOCCNC(=O)CC[C@H](NC(=O)CCCCCCCCCCCCCCCCC(=O)O)C(=O)O)NC(=O)[C@H](CCCN)NC(=O)[C@H](CC(=O)O)NC(=O)[C@H](CC(C)C)NC(=O)[C@](C)(CC(C)C)NC(=O)[C@@H](NC(=O)[C@](C)(CO)NC(=O)[C@H](Cc1ccncc1)NC(=O)[C@H](CC(=O)O)NC(=O)[C@H](CO)NC(=O)[C@@H](NC(=O)[C@](C)(Cc1ccccc1F)NC(=O)[C@@H](NC(=O)CNC(=O)[C@H](CCC(N)=O)NC(=O)C(C)(C)NC(=O)[C@@H](N)Cc1ccc(O)cc1)[C@@H](C)O)[C@@H](C)O)[C@@H](C)CC)[C@@H](C)O)[C@@H](C)CC)C(=O)N[C@@H](CCC(=O)O)C(=O)NCC(=O)NCC(=O)N1CCC[C@H]1C(=O)N[C@@H](CO)C(=O)N[C@@H](CO)C(=O)NCC(=O)N[C@@H](CCC(=O)O)C(=O)N1CCC[C@H]1C(=O)N1CCC[C@H]1C(=O)N1CCC[C@H]1C(=O)N[C@@H](CCC(=O)O)C(N)=O [Example 457] (H-Y[Aib]QGT[αMePhe(2-F)]TSD[4Pal][αMeS]I[αMeL]LD[Orn]K([AEEA-γGlu-C18 diacid])AQ[Aib]TFI[dE][αMeY]LIEGGPSSGEPPPE-NH2) | 78.8 | 68.9 | 60.1 | 333 | 11.7 | 0.226 | 2.86 | 0.881 | 9.18 | 
H-Y[Aib]QGT[αMePhe(2-F)]TSD[4Pal]SI[αMeL]LD[Orn]K([AEEA-γGlu-C18 diacid])AQ[αMe4Pal][Orn]FI[dE]YLIEGGPSSGEPPPEGT-NH2 [Example 500] | 10.6 | 1 | 0 | 494 | 50.3 | 0.623 | 4.04 | 3.9 | 37.5 | 
H-Y[Aib]QGT[αMePhe(2-F)]TSD[4Pal][αMeS]I[αMeL]LD[Orn]K([AEEA-γGlu-C18 diacid])AQ[αMe4Pal]EFI[dE][αMeY]LIEGGPSSGAPPPSGTGE-NH2 [Example 714] | 99.2 | 102 | 96.9 | 197 | 33.2 | 0.289 | 1.76 | 0.754 | 7.64 | 
H-Y[Aib]QGTFTSD[4Pal]SQ[αMeL]LD[Orn]K([γGlu-γGlu-C18 diacid])AQ[αMe4Pal]AFIE[αMeY]LIEGGPSSGEPPPSGSEE-NH2 [Example 1027] |  |  |  | 1470 | 252 |  |  | 58.1 |  | AUC(0-inf) (in vivo [8]): 8.57 ± 1.55 µM·h; clearance (in vivo [8]): 1.2 mL/h/kg; half-life (in vivo [8]): 3.18 ± 1.31 days; EC50 (hGLP-1R [4]; [10]): 1.23 nM; bioavailability (in vivo [9]; 10 mg): 1.2%; AUC(0-inf) (in vivo [9]; 300 mg): 5.07 µM·h; CL/F (in vivo [9]; 300 mg): 2.77 mL/min/kg; Cmax (in vivo [9]; 300 mg): 135 nM; Tmax (in vivo [9]; 300 mg): 2.5 h; half-life (in vivo [9]; 300 mg): 2.32 days; EC50 (hGcgR; [10]): 4.99 nM; EC50 (hGIPR [7]; [10]): 208 pM
H-Y[Aib]QGT[αMePhe(2-F)]TSD[4Pal][αMeS]I[αMeL]LD[Orn]K([AEEA-γGlu-C18 diacid])AQ[αMe4Pal]EFI[dE][αMeY]LIEGGPSSGEPPPSGTGE-NH2 [Example 711] | 95 | 91.6 | 91.9 | 197 | 35.2 | 0.355 | 1.29 | 0.786 | 8.61 | 
